Test results reported in US6979747B2, “Antioxidants, preparation processes and their uses” (Centre National de la Recherche Scientifique (CNRS), priority 1999, dated 2005).
pEC50: −log10 of the molar value.

Experiments:
HIV-1 LAI = assay: Antiviral activity in quiescent or PHA-P activated PBLs infected with HIV-1 LAI; format: cell-based; conditions: quiescent PBLs or PBLs activated by PHA-P
Method: For some experiments, the PBMCs and the PBLs are activated for 48 h with 1 μg/ml of a mitogen, PHA-P (Difco Laboratories). The PBMCs and the PBLs are cultured in medium A (quiescent) or B (activated). The cells are cultured at 37° C. in an atmosphere saturated with moisture under 5% of CO2. The culture supernatants are removed and the culture media are replaced every three or four days. At each renewal of the culture media, the cell viability is evaluated by coloring with trypan blue or by microscopic observation.
The MDMs were infected with the reference isolate with macrophage tropism, HIV-1/Ba-L. The PBMCs and the PBLs were infected with the reference isolate with lymphocyte tropism HIV-1 LAI. The viral stock were formed by amplifying these strains in vitro using umbilical blood mononucleated cells (UBM(s) preactivated with 1 μg/ml of PHA-P and cultured in medium A supplemented by 20 IU/ml of IL-2. In order to remove the soluble factors, such as cytokines, the culture supernatants were ultracentrifuged at 360 000 g for 5 min, and the pellets were resuspended in RPMI 1640. The viral stocks thus formed were subsequently titred using PBMCs activated with PHA-P. The TCID50s (50% Tissue Culture Infectious Dose) were calculated using the Kärber formula.
A million MDMs were infected with 10 000 TCID50s of the HIV-1/Ba-L strain. This amount of virus corresponds to a multiplicity of infection (m.o.i.) equal to 0.01. The excess of virus is removed 24 h after by washing with cells using RPMI 1640. […]
The viral replication is measured by assaying the RT activity in the culture supernatants according to the technique described by F. Rey et al. (Biochem. Biophys. Res. Comm., 1984, 121, 126-133). The radioactivity incorporated during the extension of the complementary strand of a poly-rA synthetic matrix in the presence of an oligo-dT12-18 primer and of a radiolabeled substrate, [^3H-methyl]thymidine-5′-triphosphate ([^3H]TPP), makes it possible to assay the enzymatic activity of RT. […] The β radioactivity is quantified by means of a scintillation counter (Packard Bell). […]

HIV-1/Ba-L [1] = assay: Antiviral activity in human spleen macrophages infected with HIV-1/Ba-L; format: cell-based; conditions: Human immunodeficiency virus 1, BAL, Macrophage, read-out: concentration that decreases HIV replication by 50%
Description: The spleen is dissected and sieved and then the mononuclear cells are isolated using a density gradient, on a Ficoll cushion. The monocytes/macrophages are obtained by adherence to the plastic. The monocytes were allowed to differentiate into macrophages for 7 days, at which time they were infected.
Retroviral replication within this cell population, and thus the effectiveness of a molecule such as I-152, is conditioned partly by the level of cell differentiation. It was therefore important to make sure of the antiviral effectiveness of I-152 in monocytes/macrophages with a degree of maturation which can be different from that of MDMs. We have thus evaluated the antiviral activity of I-152 and its ability to regenerate the intracellular level of GSH in spleen macrophages. In this cell populations, the HIV-1/Ba-L strain also replicates at high […]. […] This is because the concentration of 38 μM decreases HIV replication by 50% in this spleen cell population (table III). […] It should be noted that, in the spleen macrophages, as in the macrophages derived from blood monocytes, infection by HIV leads to a deficiency of GSH (MDM; FIG. 16).

[2] = molecular target: T1, RT of the HIV-1 LAI isolate (Human immunodeficiency virus type 1 group M subtype B, UniProt P03367); assay: Acellular test of the enzymatic activity of RT; format: biochemical; conditions: acellular system
T1 construct: The RT is released by lysis of the viral pellet in 20 μl of NTE-Triton; endogenous in cells; host or cells: Virions pelleted by ultracentrifugation from supernatants of infected cell cultures
Method: The viral replication is measured by assaying the RT activity in the culture supernatants according to the technique described by F. Rey et al. (Biochem. Biophys. Res. Comm., 1984, 121, 126-133). The radioactivity incorporated during the extension of the complementary strand of a poly-rA synthetic matrix in the presence of an oligo-dT12-18 primer and of a radiolabeled substrate, [^3H-methyl]thymidine-5′-triphosphate ([^3H]TPP), makes it possible to assay the enzymatic activity of RT. 400 μl of supernatant are ultracentrifuged at 360 000 g for 5 min. The RT is released by lysis of the viral pellet in 20 μl of NTE-Triton (100 mM NaCl, 10 mM Tris, 1 mM EDTA, 0.1% Triton X-100). These 20 μl are subsequently incubated with 40 μl of the following reaction mixture: 62.5 mM Tris, pH 7.8; 25 mM KCl; 6.25 mM MgCl2; 1.25 mM dithiothreitol (DTT); 2.5×10^−3 ODU oligo-dT12-18 and poly-rA, 5.55×10^−3 TBq {^3H]TTP. After one hour at 37° C., the enzymatic reaction is halted and the newly synthesized strands are precipitated for 20 min at 4° C. by the addition of 1 ml of sodium pyrophosphate (NaPP), of 50 μl of yeast DNA (0.1 mg/ml in 5% trichluoroacetic acid (TCA)), and of 4 ml of 20% TCA. The mixture is filtered using a cellulose acetate membrane (Millipore) which retains the radiolabeled poly-dT chains. The filter is washed using 20 ml of 5% TCA and the residual water is removed by addition of 25 μl of 70% ethanol. The filter is dried in an oven for 10 minutes at 80° C. and is then introduced into vials containing 8 ml of liquid scintillant. The β radioactivity is quantified by means of a scintillation counter (Packard Bell). The results are expressed in pM of [^3H]-TMP incorporated/h/ml of supernatant or, more simply, in cpm/h/ml.
The I-152 molecule is composed of NAC and MEA, which are capable of inhibiting the activity of RT (A. Bergamini et al., J. Clin. Invest., 1994, 93, 2251-2257). For this reason, the inhibiting capacity of I-152 with respect to the RT activity was measured using an acellular test. This test was carried out according to the protocol described above (§ 3.3.3.1.). In the reaction mixture, only the 20 μl of water are replaced by 20 μl of a concentration of I-152 or of the reference compounds. Heparin, known for inhibiting the activity of RT and of the other DNA polymerases, is used as positive control for inhibition.

HIV-1/Ba-L [3] = assay: Combination of I-152 with AZT in MDMs infected with HIV-1/Ba-L (Chou combination index); format: cell-based; conditions: I-152 combined with AZT
Method: Viral replication was measured by assaying the reverse transcriptase activity in culture supernatants using the RetroSys kit from Innovagen, following the recommendations of the company.
The compound I-152 and its derivatives are prepared extemporaneously by being dissolved in dimethyl sulfoxide (DMSO) at the concentration of 100 mM. They are subsequently stored at −20° C. after having been diluted 10 fold in phosphate buffer (PBS).
The pro-GSH compounds of the “I-152 family” are preferably administered as adjuvants therapeutic for current antiretrovirals. The inventors have thus attempted to measure in vitro the effects of I-152 with respect to the anti-HIV effectiveness of these molecules. This study was carried out using macrophages derived from human blood monocytes infected by the HIV-1/Ba-L strain and according to the methodology described by J. and T C. Chou for quantifying the synergistic effects, additive or antagonistic, between two molecules.

In the case of `CC(=O)N[C@@H](CS)C(=O)NCCSC(C)=O` [I-152, N-(N-acetyl-L-cysteinyl)-S-acetylcysteamine], the “antiviral activity (in words)” value (HIV-1 LAI) was “inhibits viral replication”, the pEC50 (HIV-1/Ba-L [1]) was 4.42 and the “inhibiting activity with respect to RT (in words)” value [2] was “do not exhibit an inhibiting activity”. For the same molecule, the “combination index (CI)” value (HIV-1/Ba-L [3]) was “less than 1”.
